Legend:
[1] = acute toxicity in mice, intravenous; settings: in vivo, mouse, i.v., dosage at which 50% of the mice die
Experimental: 1. The acute toxicity in mice when administered intravenouly was measured and the LD50 (=dosage at which 50% of the mice die) determined.

[2] = test system: cardiac β-receptor; experiment: inhibition of isoprenalin tachycardia in wake rabbits (cardiac β-receptor blocking activity); assay type: in vivo, rabbit; settings: for Heartbeat Frequency: isoprenalin 1 μg/kg i.v. 30 minutes after infusion, x ± sx; for DE250: i.v., interpolated dosage which limits the frequence increase to 250 beats/min
Experimental: The following tests were carried out to determine the cardiac β-receptor blocking activity of certain test compounds by determining the inhibition of the heart beat frequency increase induced by intravenous administration of isoprenalin.
The β-receptor blocking activity of the test compounds was tested on wake rabbits weighing between 2 to 3.5 kg. and kept in wooden cages. EKG-electrodes were inserted into the hind quarters of the rabbits s.c. (II. lead) and the heart frequency was measured based on 20 heart beats. The test compounds were then infused through a small tube to the ear vein of the rabbits over a period of 15 minutes. 30 minutes after the infusion isoprenalin (3,4-dihydro-α-[(isopropylamino)-methyl]-benzylalcohol) was injected intravenously at 1 μg/kg.

Row | Structure (SMILES) | LD50 [1] | Heartbeat Frequency ([2]; 1.0 mg/kg i.v.) | Heartbeat Frequency ([2]; 5.0 mg/kg i.v.) | DE250 [2] | Heartbeat Frequency ([2]; 0.01 mg/kg i.v.) | Heartbeat Frequency ([2]; 0.1 mg/kg i.v.) | Heartbeat Frequency ([2]; 0.3 mg/kg i.v.) | Heartbeat Frequency ([2]; 0.5 mg/kg i.v.)
1 | CC(C)NCC(O)COc1ccc2nsnc2c1 (centres unmarked) [Compound A, 5-(3-Isopropylamino-2-hydroxypropoxy)-2,1,3-benzo-thiadiazole, reference compound] | 100 mg/kg | 290 ± 8 beats/min | 246 ± 7 beats/min | 5 mg/kg |  |  |  | 
2 | CC(C)NCC(O)COc1cccc2nsnc12 (centres unmarked) [Compound I, 4-(3-Isopropylamino-2-hydroxy-propyloxy)-2,1,3-benzthiadiazole] | 50 mg/kg | 220 ± 14 beats/min | 210 ± 5 beats/min | 0.7 mg/kg | 324 ± 9 beats/min | 297 ± 10 beats/min | 266 ± 14 beats/min | 
3 | CC(C)(C)NCC(O)COc1cccc2nsnc12 (centres unmarked) [Compound II] | 45 mg/kg | 215 ± 10 beats/min | 220 ± 7 beats/min | 0.5 mg/kg |  | 308 ± 10 beats/min |  | 245 ± 6 beats/min

Source: US4436742A, “4-Hydroxy-2,1,3-benzthiadiazole compounds and β-adrenergic method of use therefor” (Boehringer Mannheim GmbH, priority 1974, dated 1984)
